According to doi:10.1101/2021.09.27.461913v1, “Interactions of cytosolic termini of the Jen1 monocarboxylate transporter are critical for trafficking, transport activity and endocytosis” (biorxiv, 2021):

Legend:
Test in all cases: radiolabelled [3H]-xanthine uptake in intact  cells
Assay type in all cases: cell-based, Aspergillus nidulans
Details in all cases: labelled compound
UapA/Jen1CT33 = tested on: T1, UapA/Jen1CT33
T1 construct: Jen1 residues 584-616 fused C-terminally to intact UapA, GFP-tagged, GAL promoter, in S. cerevisiae; one polypeptide; with Carboxylic acid transporter protein homolog

UapA/Jen1NT94 = tested on: T2, UapA/Jen1NT94
T2 construct: Jen1 residues 1-94 fused N-terminally to intact UapA, GFP-tagged, GAL promoter, in S. cerevisiae; one polypeptide; with Carboxylic acid transporter protein homolog

UapA/Jen1NT94-CT33 = tested on: T3, UapA/Jen1NT94-CT33
T3 construct: Jen1 1-94 / intact UapA / Jen1 584-616, GFP-tagged, GAL promoter, in S. cerevisiae; one polypeptide; with Carboxylic acid transporter protein homolog; Carboxylic acid transporter protein homolog

Question: For `O=c1[nH]c(=O)c2[nH]cnc2[nH]1` [xanthine], which Km (UapA/Jen1CT33) is on record?
Answer: The Km was 10 ± 3 µM.

Question: What about the Km (UapA/Jen1NT94) of the same compound?
Answer: The Km was 5 ± 2 µM.

Question: What about the Km (UapA/Jen1NT94-CT33) of the same compound?
Answer: The Km was 101 ± 10 µM.
